These results are taken from article doi:10.1101/2021.02.18.431786v1 (biorxiv, 2021).

The target of the assay is ABCG2 (Homo sapiens, UniProt Q9UNQ0). The assay is described as follows: biochemical.

For orientation: EC50 means the concentration needed to bring the measured effect to its halfway point. A higher EC50 goes with a need for much substance.

Chain of ABCG2 (Q9UNQ0 whole entry): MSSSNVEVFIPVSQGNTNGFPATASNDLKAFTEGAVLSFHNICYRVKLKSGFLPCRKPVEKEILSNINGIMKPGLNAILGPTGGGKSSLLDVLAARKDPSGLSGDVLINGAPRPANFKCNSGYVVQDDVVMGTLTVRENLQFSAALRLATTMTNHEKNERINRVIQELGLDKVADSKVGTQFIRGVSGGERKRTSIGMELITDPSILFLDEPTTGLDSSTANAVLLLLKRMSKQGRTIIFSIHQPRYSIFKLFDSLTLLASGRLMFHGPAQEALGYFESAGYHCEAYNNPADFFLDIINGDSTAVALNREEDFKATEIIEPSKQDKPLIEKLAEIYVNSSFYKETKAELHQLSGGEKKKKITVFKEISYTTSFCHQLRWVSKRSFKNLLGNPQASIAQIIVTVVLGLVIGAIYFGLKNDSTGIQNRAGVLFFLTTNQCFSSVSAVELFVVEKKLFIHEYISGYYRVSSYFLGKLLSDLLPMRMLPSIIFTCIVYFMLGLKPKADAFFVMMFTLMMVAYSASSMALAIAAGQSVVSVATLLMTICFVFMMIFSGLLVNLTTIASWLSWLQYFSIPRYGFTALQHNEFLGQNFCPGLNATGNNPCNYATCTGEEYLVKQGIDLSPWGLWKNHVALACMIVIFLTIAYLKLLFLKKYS

On to `CC[C@@]1(O)C(=O)OCc2c1cc1n(c2=O)Cc2cc3c(CN(C)C)c(O)ccc3nc2-1` [topotecan], for which the response was half-maximal at 11.7 ± 0.3 µM (EC50).
On to `COc1cc2c(cc1OC)CN(CCc1ccc(NC(=O)c3cc(OC)c(OC)cc3NC(=O)c3cnc4ccccc4c3)cc1)CC2` [tariquidar], for which a half-maximal response (EC50) required 0.08 ± 0.01 µM.
Under `O=C1c2c(O)ccc(O)c2C(=O)c2c(NCCNCCO)ccc(NCCNCCO)c21` [mitoxantrone] stands 18.3 ± 2.2 µM.
